Laboratory results published in patent US20120202690A1, “HERBICIDAL COMPOUNDS” (SYNGENTA LIMITED, priority 2009, published 2012).

What was measured:
Format in all cases: in vivo
[1] = tested on: Alopecurus myosuroides (ALOMY); test: Pre-emergence biological efficacy, glasshouse, 1000 g/ha, evaluated after 13 days (100=total damage to plant; 0=no damage to plant); details: rate 1,000 g/ha; for pest or weed control at 1000 g/ha: Alopecurus myosuroides, 312 h, read-out: Percentage damage caused to weed species, pre-emergence, ALOMY
Description: (§1) Seeds of Alopecurus myosuroides (ALOMY), Setaria faberi (SETFA), Echinochloa crus-galli (ECHCG), Solanum nigrum (SOLNI), Amaranthus retroflexus (AMARE) and Ipomoea hederaceae (IPOHE) were sown in standard soil in pots. […] The test plants were then grown under controlled conditions in the glasshouse (at 24/16° C., day/night; 14 hours light; 65% humidity) and watered twice daily. […]

[2] = tested on: Amaranthus retroflexus (AMARE); test: as above; details: rate 1,000 g/ha; for pest or weed control at 1000 g/ha: Amaranthus retroflexus, 312 h, read-out: Percentage damage caused to weed species, pre-emergence, AMARE
Description: as §1

[3] = tested on: Echinochloa crus-galli (ECHCG); test: as above; details: rate 1,000 g/ha; for pest or weed control at 1000 g/ha: Echinochloa crus-galli, 312 h, read-out: Percentage damage caused to weed species, pre-emergence, ECHCG
Description: as §1

[4] = tested on: Ipomoea hederaceae (IPOHE); test: as above; details: rate 1,000 g/ha; for pest or weed control at 1000 g/ha: Ipomoea, 312 h, read-out: Percentage damage caused to weed species, pre-emergence, IPOHE
Description: as §1

Setaria faberi (SETFA) [5] = test: as above; details: rate 1,000 g/ha; for pest or weed control at 1000 g/ha: Setaria faberi, 312 h, read-out: Percentage damage caused to weed species, pre-emergence, SETFA
Description: as §1

Solanum nigrum (SOLNI) [6] = test: as above; details: rate 1,000 g/ha; for pest or weed control at 1000 g/ha: Solanum nigrum, 312 h, read-out: Percentage damage caused to weed species, pre-emergence, SOLNI
Description: as §1

[7] = tested on: Alopecurus myosuroides (ALOMY); test: Post-emergence biological efficacy, glasshouse, 500 or 1000 g/ha, evaluated after 13 days (100=total damage to plant; 0=no damage to plant); details: rate 1,000 g/ha; for pest or weed control at 1000 g/ha: Alopecurus myosuroides, 312 h, read-out: Percentage damage caused to weed species, post-emergence, ALOMY
Description: as §1, with “Echinochloa […]),” for “Echinochloa crus-galli (ECHCG),”, “grown on” for “grown”, “in a” for “in the”

[8] = tested on: Amaranthus retroflexus (AMARE); test: as above; details: rate 1,000 g/ha; for pest or weed control at 1000 g/ha: Amaranthus retroflexus, 312 h, read-out: Percentage damage caused to weed species, post-emergence, AMARE
Description: as §1, with “Echinochloa […]),” for “Echinochloa crus-galli (ECHCG),”, “grown on” for “grown”, “in a” for “in the”

[9] = tested on: Echinochloa crusgaffi (ECHCG); test: as above; details: rate 1,000 g/ha; for pest or weed control at 1000 g/ha: Echinochloa, 312 h, read-out: Percentage damage caused to weed species, post-emergence, ECHCG
Description: as §1, with “Echinochloa […]),” for “Echinochloa crus-galli (ECHCG),”, “grown on” for “grown”, “in a” for “in the”

[10] = tested on: Ipomoea hederaceae (IPOHE); test: as above; details: rate 1,000 g/ha; for pest or weed control at 1000 g/ha: Ipomoea, 312 h, read-out: Percentage damage caused to weed species, post-emergence, IPOHE
Description: as §1, with “Echinochloa […]),” for “Echinochloa crus-galli (ECHCG),”, “grown on” for “grown”, “in a” for “in the”

Setaria faberi (SETFA) [11] = test: as above; details: rate 1,000 g/ha; for pest or weed control at 1000 g/ha: Setaria faberi, 312 h, read-out: Percentage damage caused to weed species, post-emergence, SETFA
Description: as §1, with “Echinochloa […]),” for “Echinochloa crus-galli (ECHCG),”, “grown on” for “grown”, “in a” for “in the”

Solanum nigrum (SOLNI) [12] = test: as above; details: rate 1,000 g/ha; for pest or weed control at 1000 g/ha: Solanum nigrum, 312 h, read-out: Percentage damage caused to weed species, post-emergence, SOLNI
Description: as §1, with “Echinochloa […]),” for “Echinochloa crus-galli (ECHCG),”, “grown on” for “grown”, “in a” for “in the”

SMILES	pest or weed control at 1000 g/ha [1]	pest or weed control at 1000 g/ha [2]	pest or weed control at 1000 g/ha [3]	pest or weed control at 1000 g/ha [4]	pest or weed control at 1000 g/ha (Setaria faberi (SETFA) [5])	pest or weed control at 1000 g/ha (Solanum nigrum (SOLNI) [6])	pest or weed control at 1000 g/ha [7]	pest or weed control at 1000 g/ha [8]	pest or weed control at 1000 g/ha [9]	pest or weed control at 1000 g/ha [10]	pest or weed control at 1000 g/ha (Setaria faberi (SETFA) [11])	pest or weed control at 1000 g/ha (Solanum nigrum (SOLNI) [12])	also measured
COCCOCCOC(=O)c1nc(-c2ccc(Cl)c(OC)c2F)nc2[nH]cc(C)c12 [Compound 1-85, 2-(4-Chloro-2-fluoro-3-methoxyphenyl)-4-{2-[(2-methoxy)-ethoxy]-ethoxycarbonyl}-5-methyl-7H-pyrrolo[2,3-d]pyrimidine]	20%	100%	0%	10%	0%	70%	10%	100%	60%	40%	40%	90%	
COc1c(Cl)ccc(-c2nc(C(=O)OCc3ccco3)c3c(C)c[nH]c3n2)c1F [Compound 1-87, 2-(4-Chloro-2-fluoro-3-methoxyphenyl)-4-(2-furanyl-methoxycarbonyl)-5-methy-7H-pyrrolo[2,3-d]pyrimidine]													Percentage damage caused to weed species, pre-emergence, ALOMY [1]: 0%; Percentage damage caused to weed species, pre-emergence, AMARE [2]: 10%; Percentage damage caused to weed species, pre-emergence, ECHCG [3]: 0%; Percentage damage caused to weed species, pre-emergence, IPOHE [4]: 10%; Percentage damage caused to weed species, pre-emergence, SETFA (Setaria faberi (SETFA) [5]): 0%; Percentage damage caused to weed species, pre-emergence, SOLNI (Solanum nigrum (SOLNI) [6]): 20%; Percentage damage caused to weed species, post-emergence, ALOMY [7]: 0%; Percentage damage caused to weed species, post-emergence, AMARE [8]: 100%; Percentage damage caused to weed species, post-emergence, ECHCG [9]: 0%; Percentage damage caused to weed species, post-emergence, IPOHE [10]: 50%; Percentage damage caused to weed species, post-emergence, SETFA (Setaria faberi (SETFA) [11]): 10%; Percentage damage caused to weed species, post-emergence, SOLNI (Solanum nigrum (SOLNI) [12]): 90%
COc1c(Cl)ccc(-c2nc(C(=O)OCC3CCCO3)c3c(C)c[nH]c3n2)c1F (stereo not drawn) [Compound 1-88, 2-(4-Chloro-2-fluoro-3-methoxyphenyl)-5-methyl-4-(tetrahydrofuran-2-yl-methoxycarbonyl)-7H-pyrrolo[2,3-d]pyrimidine]	0%	10%	10%	10%	0%	20%	10%	50%	10%	50%	40%	70%	
COC(=O)c1nc(-c2ccc(Cl)c(OC)c2F)nc2[nH]c(-c3ccccc3)c(C)c12 [Compound 1-108, 2-(4-Chloro-2-fluoro-3-methoxyphenyl)-4-methoxycarbonyl-5-methyl-6-phenyl-7H-pyrrolo[2,3-d]pyrimidine]	0%	0%	0%	0%	0%	0%	0%	0%	0%	50%	0%	30%	
COC(=O)c1nc(-c2ccc(Cl)c(N(C)C)c2F)nc2[nH]cc(C)c12 [Compound 1-116, 2-(4-Chloro-3-dimethylamino-2-fluorophenyl)-4-methoxycarbonyl-5-methyl-7H-pyrrolo[2,3-d]pyrimidine]	0%	0%	0%	0%	0%	0%	0%	50%	0%	50%	20%	40%	
COC(=O)c1nc(-c2ccc(Cl)c(N(C)C)c2F)nc2[nH]c(C)cc12 [Compound 1-118, 2-(4-chloro-3-dimethylamino-2-fluorophenyl)-4-methoxycarbonyl-6-methyl-7H-pyrrolo[2,3-d]pyrimidine]	0%	40%	10%	40%	20%	70%	10%	100%	50%	50%	70%	80%	
COC(=O)c1nc(-c2ccc(Cl)c(N(C)C)c2F)nc2[nH]c(C)c(C)c12 [Compound 1-120, 2-(4-Chloro-3-dimethylamino-2-fluorophenyl)-5,6-dimethyl-4-methoxycarbonyl-7H-pyrrolo[2,3-d]pyrimidine]	0%	0%	0%	0%	0%	0%	0%	10%	0%	20%	0%	20%	
O=C(O)c1nc(Cl)nc2[nH]ccc12 [Compound 1-121, 4-carboxy-2-chloro-7H-pyrrolo[2,3-d]pyrimidine]	0%	0%	0%	0%	0%	0%	0%	0%	0%	0%	0%	10%	
COC(=O)c1nc(Cl)nc2[nH]c(C)cc12 [Compound 1-126, 2-Chloro-4-methoxy-carbonyl-6-methyl-7H-pyrrolo[2,3-d]pyrimidine]	0%	0%	0%	0%	0%	0%	0%	0%	0%	0%	0%	0%	
COC(=O)c1nc(-c2ccc(Cl)c(OC)c2F)nc2c1c(C)cn2C [Compound 2-64, 2-(4-Chloro-2-fluoro-3-methoxyphenyl)-5,7-dimethyl-4-methoxycarbonyl-7H-pyrrolo[2,3-d]pyrimidine]	0%	30%	0%	50%	0%	40%	0%	30%	0%	40%	0%	60%	
COC(=O)c1nc(-c2ccc(Cl)c(F)c2)nc2c1ccn2CC1CC1 [Compound 5-18, 2-(4-Chloro-3-fluorophenyl)-7-cyclopropylmethyl-4-methoxycarbonyl-7H-pyrrolo[2,3-d]pyrimidine]	0%	0%	0%	0%	0%	0%	0%	0%	0%	0%	0%	20%	
